Read-outs that look alike come from different tables or passages of the source. Where a SMILES comes first, the peptide text is derived from it. Bridges are numbered along the chain shown (N, C = ends). [ ]: non-standard residue; d: D form. 2Nal = N[C@@H](Cc1ccc2ccccc2c1)C(=O)O; Cit = NC(=O)NCCC[C@H](N)C(=O)O Where only a bound is given, the exact number is not on record here.

Common to all, as to type: cell-based
In one data set the test system is HIV-1 (IIIB) strain. The data set is described as follows: Anti-HIV activity: inhibition of MT-4 cell death by HIV infection (MTT method). The conditions noted are these: MT-4 CD4+ T cells infected by HIV-1 (IIIB), 37° C., 5 days, MTT; average of at least three measurements; read-out: EC50 (concentration where MT-4 cell death by HIV infection is inhibited by 50%). How it is done: (§1) HIV-1 (IIIB) strain obtained from MOLT/HIV-1 (IIIB) cell previously infected by HIV-1 was used. The polypeptide of the present invention was added to MT-4 CD4^+ T cells infected by HIV in various kinds of concentrations, and a number of living cells after culturing at 37° C. for 5 days was determined by using a 3′-(4,5-dimethylthiazol-2-yl)-2,5-diphenyltetrazolinium bromide (MTT) method. Anti-HIV activity is shown by a concentration (EC50 value), where MT-4 cell death by HIV infection is inhibited by 50%. Cytotoxicity of the peptide according to the present invention was shown by a 50% survival concentration (Test I: CC50 value) by culturing virus-uninfected MT-4 cells with the polypeptide according to the present invention in various concentrations, and determining a number of living cells by the MTT method. Moreover, a number of living cells of human peripheral blood mononuclear cells (monocyte) (PBMC) was determined by trypan blue dyeing method, and shown by a 50% survival concentration (Test II: CC50 value). Respective ratios of the CC50 value and the EC50 value were shown as a selective index (SI). Obtained values were summarized in Table 3 using the conventionally known polypeptides T134 and T140, and an anti-HIV compound: 3′-azido-2′,3′-dideoxythymidine (AZT) used as a medicine as a control anti-HIV agent.

The nature of data set [1]: Cytotoxicity Test I: virus-uninfected MT-4 cells, MTT method. The conditions noted are these: virus-uninfected MT-4 cells, MTT method, read-out: CC50 (Test I), 50% survival concentration. How it is done:
as §1

In data set [2] the test system is virus-uninfected MT-4 cells. The data set is described as above. The conditions noted are these: for SI: CC50 (Test I)/EC50: selective index, MT-4 CC50 over anti-HIV EC50. The protocol:
as §1

Setting [3] is: human, MT-4 cells (virus-uninfected).

Turning to `C[C@@H]1NC(=O)[C@H](Cc2ccc(O)cc2)NC(=O)[C@@H]2CCCN2C(=O)[C@@H](CCCCN)NC(=O)[C@H](CCCCN)NC(=O)[C@H](CCCNC(=N)N)NC(=O)[C@H](Cc2ccc(O)cc2)NC(=O)[C@@H](NC(=O)[C@H](Cc2ccc3ccccc3c2)NC(=O)[C@H](CCCNC(=N)N)NC(=O)[C@@H](N)CCCNC(=N)N)CSSC[C@@H](C(=O)N[C@@H](CCCNC(=N)N)C(=O)O)NC(=O)[C@H](CCCNC(N)=O)NC1=O` [TA14010, H-Arg-Arg-Nal-Cys-Tyr-Arg-Lys-DLys-Pro-Tyr-Ala-Cit-Cys-Arg-OH] (H-RR[2Nal]CYRK[dK]PYA[Cit]CR-OH; disulfide 4-13), in the data set with HIV-1 (IIIB) strain, the EC50 stood at 18 nM. Also, in data set [1] (setting [3]), the CC50 was more than 80000 nM. The “SI: CC50 (Test I)/EC50” value in data set [2] is more than 4800.

`C[C@H]1NC(=O)[C@H](CCCCN)NC(=O)[C@H](CCCN=C(N)N)NC(=O)[C@H](Cc2ccc(O)cc2)NC(=O)[C@@H](NC(=O)[C@H](Cc2ccc3ccccc3c2)NC(=O)[C@H](CCCN=C(N)N)NC(=O)[C@@H](N)CCCN=C(N)N)CSSC[C@@H](C(=O)N[C@@H](CCCN=C(N)N)C(=O)O)NC(=O)[C@H](CCCNC(N)=O)NC(=O)[C@H](CCCN=C(N)N)NC(=O)[C@H](Cc2ccc(O)cc2)NC(=O)[C@@H]2CCCN2C1=O` [TA14007, H-Arg-Arg-Nal-Cys-Tyr-Arg-Lys-DAla-Pro-Tyr-Arg-Cit-Cys-Arg-OH] (H-RR[2Nal]CYRK[dA]PYR[Cit]CR-OH; disulfide 4-13): in data set [1] (setting [3]), the CC50 is more than 80000 nM. Moreover, the “SI: CC50 (Test I)/EC50” value in data set [2] is more than 5200.

Turning to `C[C@H](N)C(=O)N[C@@H](CCCNC(=N)N)C(=O)N[C@@H](Cc1ccc2ccccc2c1)C(=O)N[C@H]1CSSC[C@@H](C(=O)N[C@@H](CCCNC(=N)N)C(=O)O)NC(=O)[C@H](CCCNC(N)=O)NC(=O)[C@H](CCCNC(=N)N)NC(=O)[C@H](Cc2ccc(O)cc2)NC(=O)[C@@H]2CCCN2C(=O)[C@@H](CCCCN)NC(=O)[C@H](CCCCN)NC(=O)[C@H](CCCNC(=N)N)NC(=O)[C@H](Cc2ccc(O)cc2)NC1=O` [TA14001, H-Arg-Arg-Nal-Cys-Tyr-Arg-Lys-DLys-Pro-Tyr-Arg-Cit-Cys-Arg-OH] (H-AR[2Nal]CYRK[dK]PYR[Cit]CR-OH; disulfide 4-13), in the data set on HIV-1 (IIIB) strain, the EC50 was 56 nM. Further, the CC50 in data set [1] (setting [3]) is more than 40000 nM. For the same compound, the “SI: CC50 (Test I)/EC50” value in data set [2] is listed as more than 750.

Regarding `C[C@@H]1NC(=O)[C@@H]2CCCN2C(=O)[C@@H](CCCCN)NC(=O)[C@H](CCCCN)NC(=O)[C@H](CCCN=C(N)N)NC(=O)[C@H](Cc2ccc(O)cc2)NC(=O)[C@@H](NC(=O)[C@H](Cc2ccc3ccccc3c2)NC(=O)[C@H](CCCN=C(N)N)NC(=O)[C@@H](N)CCCN=C(N)N)CSSC[C@@H](C(=O)N[C@@H](CCCN=C(N)N)C(=O)O)NC(=O)[C@H](CCCNC(N)=O)NC(=O)[C@H](CCCN=C(N)N)NC1=O` [TA14009, H-Arg-Arg-Nal-Cys-Tyr-Arg-Lys-DLys-Pro-Ala-Arg-Cit-Cys-Arg-OH] (H-RR[2Nal]CYRK[dK]PAR[Cit]CR-OH; disulfide 4-13), the CC50 in data set [1] (setting [3]) was more than 80000 nM. For the same compound, in data set [2], the “SI: CC50 (Test I)/EC50” value was more than 4500.

`C[C@@H]1NC(=O)[C@@H](CCCCN)NC(=O)[C@H](CCCCN)NC(=O)[C@H](CCCN=C(N)N)NC(=O)[C@H](Cc2ccc(O)cc2)NC(=O)[C@@H](NC(=O)[C@H](Cc2ccc3ccccc3c2)NC(=O)[C@H](CCCN=C(N)N)NC(=O)[C@@H](N)CCCN=C(N)N)CSSC[C@@H](C(=O)N[C@@H](CCCN=C(N)N)C(=O)O)NC(=O)[C@H](CCCNC(N)=O)NC(=O)[C@H](CCCN=C(N)N)NC(=O)[C@H](Cc2ccc(O)cc2)NC1=O` [TA14008, H-Arg-Arg-Nal-Cys-Tyr-Arg-Lys-DLys-Ala-Tyr-Arg-Cit-Cys-Arg-OH] (H-RR[2Nal]CYRK[dK]AYR[Cit]CR-OH; disulfide 4-13): in data set [1], the CC50 was more than 80000 nM. In data set [2], the “SI: CC50 (Test I)/EC50” value was more than 4700.

As for `C[C@@H]1NC(=O)[C@@H](CCCCN)NC(=O)[C@H](CCCCN)NC(=O)[C@H](CCCNC(=N)N)NC(=O)[C@H](Cc2ccc(O)cc2)NC(=O)[C@@H](NC(=O)[C@H](Cc2ccc3ccccc3c2)NC(=O)[C@H](CCCNC(=N)N)NC(=O)[C@@H](N)CCCNC(=N)N)CSSC[C@@H](C(=O)N[C@@H](CCCNC(=N)N)C(=O)O)NC(=O)[C@H](CCCNC(N)=O)NC(=O)[C@H](CCCNC(=N)N)NC(=O)[C@H](Cc2ccc(O)cc2)NC1=O` [TA14008, H-Arg-Arg-Nal-Cys-Tyr-Arg-Lys-DLys-Ala-Tyr-Arg-Cit-Cys-Arg-OH] (H-RR[2Nal]CYRK[dK]AYR[Cit]CR-OH; disulfide 4-13), in the data set on HIV-1 (IIIB) strain, the EC50 came to 17 nM.

Regarding `C[C@@H]1NC(=O)[C@H](CCCN=C(N)N)NC(=O)[C@H](Cc2ccc(O)cc2)NC(=O)[C@@H](NC(=O)[C@H](Cc2ccc3ccccc3c2)NC(=O)[C@H](CCCN=C(N)N)NC(=O)[C@@H](N)CCCN=C(N)N)CSSC[C@@H](C(=O)N[C@@H](CCCN=C(N)N)C(=O)O)NC(=O)[C@H](CCCNC(N)=O)NC(=O)[C@H](CCCN=C(N)N)NC(=O)[C@H](Cc2ccc(O)cc2)NC(=O)[C@@H]2CCCN2C(=O)[C@@H](CCCCN)NC1=O` [TA14006, H-Arg-Arg-Nal-Cys-Tyr-Arg-Ala-DLys-Pro-Tyr-Arg-Cit-Cys-Arg-OH] (H-RR[2Nal]CYRA[dK]PYR[Cit]CR-OH; disulfide 4-13), in data set [1] (setting [3]), the CC50 was more than 80000 nM. Further, the “SI: CC50 (Test I)/EC50” value in data set [2] is more than 1800.

In the case of `C[C@@H]1NC(=O)[C@H](Cc2ccc(O)cc2)NC(=O)[C@@H](NC(=O)[C@H](Cc2ccc3ccccc3c2)NC(=O)[C@H](CCCN=C(N)N)NC(=O)[C@@H](N)CCCN=C(N)N)CSSC[C@@H](C(=O)N[C@@H](CCCN=C(N)N)C(=O)O)NC(=O)[C@H](CCCNC(N)=O)NC(=O)[C@H](CCCN=C(N)N)NC(=O)[C@H](Cc2ccc(O)cc2)NC(=O)[C@@H]2CCCN2C(=O)[C@@H](CCCCN)NC(=O)[C@H](CCCCN)NC1=O` [TA14005, H-Arg-Arg-Nal-Cys-Tyr-Ala-Lys-DLys-Pro-Tyr-Arg-Cit-Cys-Arg-OH] (H-RR[2Nal]CYAK[dK]PYR[Cit]CR-OH; disulfide 4-13), the CC50 in data set [1] (setting [3]) was more than 40000 nM. The “SI: CC50 (Test I)/EC50” value in data set [2] is more than 4500.

For `N=C(N)NCCC[C@H](NC(=O)[C@@H]1CSSC[C@H](NC(=O)[C@H](Cc2ccc3ccccc3c2)NC(=O)[C@H](CCCNC(=N)N)NC(=O)[C@@H](N)CCCNC(=N)N)C(=O)N[C@@H](Cc2ccc(O)cc2)C(=O)N[C@@H](CCCNC(N)=O)C(=O)N[C@@H](CCCCN)C(=O)N[C@H](CCCCN)C(=O)N2CCC[C@H]2C(=O)N[C@@H](Cc2ccc(O)cc2)C(=O)N[C@@H](CCCNC(=N)N)C(=O)N[C@@H](CCCNC(N)=O)C(=O)N1)C(N)=O` [TN14003, H-Arg-Arg-Nal-Cys-Tyr-Cit-Lys-DLys-Pro-Tyr-Arg-Cit-Cys-Arg-NH2] (H-RR[2Nal]CY[Cit]K[dK]PYR[Cit]CR-NH2; disulfide 4-13 (inferred)), the EC50 with HIV-1 (IIIB) strain turned out to be 0.6 nM. Moreover, the CC50 in data set [1] (setting [3]) was more than 100000 nM. In addition, the “cytotoxicity in words, compared with conventional T134/T140” value in data set [2] (conclusion drawn from Table 3) is on record as “lowered cytotoxicity”. Also, the “SI: CC50 (Test I)/EC50” value in data set [2] is listed as more than 166000.

Take `C[C@H]1NC(=O)[C@H](CCCCN)NC(=O)[C@H](CCCNC(=N)N)NC(=O)[C@H](Cc2ccc(O)cc2)NC(=O)[C@@H](NC(=O)[C@H](Cc2ccc3ccccc3c2)NC(=O)[C@H](CCCNC(=N)N)NC(=O)[C@@H](N)CCCNC(=N)N)CSSC[C@@H](C(=O)N[C@@H](CCCNC(=N)N)C(=O)O)NC(=O)[C@H](CCCNC(N)=O)NC(=O)[C@H](CCCNC(=N)N)NC(=O)[C@H](Cc2ccc(O)cc2)NC(=O)[C@@H]2CCCN2C1=O` [TA14007, H-Arg-Arg-Nal-Cys-Tyr-Arg-Lys-DAla-Pro-Tyr-Arg-Cit-Cys-Arg-OH] (H-RR[2Nal]CYRK[dA]PYR[Cit]CR-OH; disulfide 4-13): the EC50 in the data set on HIV-1 (IIIB) strain is 16 nM.

Take `N=C(N)NCCC[C@H](NC(=O)[C@@H]1CSSC[C@H](NC(=O)[C@H](Cc2c[nH]c3ccccc23)NC(=O)[C@H](CCCNC(=N)N)NC(=O)[C@@H](N)CCCNC(=N)N)C(=O)N[C@@H](Cc2ccc(O)cc2)C(=O)N[C@@H](CCCNC(=N)N)C(=O)N[C@@H](CCCCN)C(=O)N[C@H](CCCCN)C(=O)N2CCC[C@H]2C(=O)N[C@@H](Cc2ccc(O)cc2)C(=O)N[C@@H](CCCNC(=N)N)C(=O)N[C@@H](CCCNC(N)=O)C(=O)N1)C(=O)O` [Compound T134, H-Arg-Arg-Trp-Cys-Tyr-Arg-Lys-DLys-Pro-Tyr-Arg-Cit-Cys-Arg-OH, reference compound] (H-RRWCYRK[dK]PYR[Cit]CR-OH; disulfide 4-13): the EC50 with HIV-1 (IIIB) strain was 8.3 nM.

In the case of `C[C@@H]1NC(=O)[C@H](CCCNC(=N)N)NC(=O)[C@H](Cc2ccc(O)cc2)NC(=O)[C@@H](NC(=O)[C@H](Cc2ccc3ccccc3c2)NC(=O)[C@H](CCCNC(=N)N)NC(=O)[C@@H](N)CCCNC(=N)N)CSSC[C@@H](C(=O)N[C@@H](CCCNC(=N)N)C(=O)O)NC(=O)[C@H](CCCNC(N)=O)NC(=O)[C@H](CCCNC(=N)N)NC(=O)[C@H](Cc2ccc(O)cc2)NC(=O)[C@@H]2CCCN2C(=O)[C@@H](CCCCN)NC1=O` [TA14006, H-Arg-Arg-Nal-Cys-Tyr-Arg-Ala-DLys-Pro-Tyr-Arg-Cit-Cys-Arg-OH] (H-RR[2Nal]CYRA[dK]PYR[Cit]CR-OH; disulfide 4-13), the EC50 in the data set on HIV-1 (IIIB) strain stood at 47 nM.
